In patent US9108921B2, “Therapeutic compounds and compositions” (AGIOS PHARMACEUTICALS, INC, priority 2014, dated 2015):

Experiments:
PKR R510Q = PKR R510Q (Homo sapiens, UniProt P30613, R510Q); assay: PKR Mutant Assay, AC50 against PKR R510Q; type: biochemical; conditions: mutant PKR R510Q enzyme
Procedure, shortened: (§1)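 Steps: compound added to wells, then reaction mix lacking ADP; 60 min room-temperature hold; ADP (0.22-1.65 mM) added to start; A340 monitored at room temperature via PEP/LDH/NADH coupling. Top final compound concentration 100 μM, 3-fold dilutions over 11 points.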

PKR R532W = PKR R532W (Homo sapiens, UniProt P30613, R532W); assay: PKR Mutant Assay, AC50 against PKR R532W; type: biochemical; conditions: mutant PKR R532W enzyme
Procedure, shortened: as §1

PKR WT [1] = target: T1, PKR WT (Homo sapiens, UniProt P30613); assay: PKR WT enzymatic AC50 assay; type: biochemical; conditions: wild type PKR
Procedure, shortened: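 Human PKR (WT or mutant, 80-400 ng/well) in 50 mM Tris pH 7.5, 100 mM KCl, 5 mM MgCl2, 1 mM DTT, 0.03% BSA with PEP 0.1-0.5 mM, NADH 180 uM and LDH, preincubated 60 min at room temperature with compound (11-point 3-fold series from 100 μM final, 1% DMSO). ADP 0.22-1.65 mM started reaction; A340 followed.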

PKR WT [2] = target: T1, PKR WT; assay: PKR WT cell based AC50 assay; conditions: wild type PKR

T1 sequence (P30613 whole entry): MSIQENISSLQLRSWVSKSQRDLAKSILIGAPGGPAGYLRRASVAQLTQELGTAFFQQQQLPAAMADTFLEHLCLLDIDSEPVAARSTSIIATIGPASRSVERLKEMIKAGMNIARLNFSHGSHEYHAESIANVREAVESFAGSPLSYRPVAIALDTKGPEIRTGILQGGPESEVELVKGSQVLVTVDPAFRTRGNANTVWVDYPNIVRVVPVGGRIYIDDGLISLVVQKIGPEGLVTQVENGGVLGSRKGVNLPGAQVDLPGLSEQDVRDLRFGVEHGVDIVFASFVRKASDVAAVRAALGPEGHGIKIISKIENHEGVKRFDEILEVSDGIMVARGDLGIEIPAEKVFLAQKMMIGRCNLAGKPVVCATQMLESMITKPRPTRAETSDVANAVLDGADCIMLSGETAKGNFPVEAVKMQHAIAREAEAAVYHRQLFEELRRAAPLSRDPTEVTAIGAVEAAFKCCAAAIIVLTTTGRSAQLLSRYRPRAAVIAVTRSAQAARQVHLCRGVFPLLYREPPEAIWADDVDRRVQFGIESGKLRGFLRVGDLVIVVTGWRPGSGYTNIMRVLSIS
Sequence of PKR R510Q (P30613 whole entry R510Q): as the sequence (P30613 whole entry) above, with R510Q counted along it
Sequence of PKR R532W (P30613 whole entry R532W): as the sequence (P30613 whole entry) above, with R532W counted along it

AC50 (PKR R510Q) [nM]	AC50 (PKR R532W) [nM]	AC50 (PKR WT [1]) [nM]	AC50 (PKR WT [2]) [nM]	SMILES
101 to 1000	< 100	< 100	< 100	COc1cccc(CC2(O)CCN(C(=O)c3ccc(NS(=O)(=O)c4cccc5cccnc45)cc3)CC2)c1 [Compound 135, N-(4-(4-hydroxy-4-(3-methoxybenzyl)piperidine-1-carbonyl)phenyl)quinoline-8-sulfonamide]
< 100	< 100	< 100	101 to 1000	COc1cc(NS(=O)(=O)c2cccc3cccnc23)ccc1C(=O)N1CCC(O)(Cc2ccccc2)CC1 [Compound 112, N-(4-(4-benzyl-4-hydroxypiperidine-1-carbonyl)-3-methoxyphenyl)quinoline-8-sulfonamide]
< 100	< 100	< 100	< 100	O=C(c1ccc(NS(=O)(=O)c2cccc3cccnc23)cc1)N1CCC(O)(c2ccc(F)cc2Cl)CC1 [Compound 111, N-[4-[4-(2-chloro-4-fluoro-phenyl)-4-hydroxy-piperidine-1-carbonyl]phenyl]quinoline-8-sulfonamide]
< 100	< 100	< 100	< 100	CC(C)(C)CC1(O)CCN(C(=O)c2ccc(NS(=O)(=O)c3cccc4scnc34)cc2)CC1 [Compound 134, N-(4-(4-hydroxy-4-neopentylpiperidine-1-carbonyl)phenyl)benzo[d]thiazole-4-sulfonamide]
< 100	< 100	< 100	< 100	O=C(c1ccc(NS(=O)(=O)c2cccc3cccnc23)cc1)N1CCC(O)(Cc2ccccc2F)CC1 [Compound 110, N-(4-(4-(2-fluorobenzyl)-4-hydroxypiperidine-1-carbonyl)phenyl)quinoline-8-sulfonamide]
< 100	< 100	< 100	< 100	CC(CC1(O)CCN(C(=O)c2ccc(NS(=O)(=O)c3cccc4scnc34)cc2)CC1)C(F)(F)F (stereo not drawn) [Compound 391]
< 100	< 100	< 100	< 100	O=C(c1ccc(NS(=O)(=O)c2cccc3cccnc23)cc1)N1CCC(O)(Cc2cccc(F)c2)CC1 [Compound 105, N-(4-(4-(3-fluorobenzyl)-4-hydroxypiperidine-1-carbonyl)phenyl)quinoline-8-sulfonamide]
101 to 1000	< 100	< 100	< 100	O=C(c1ccc(NS(=O)(=O)c2cccc3cccnc23)cc1Cl)N1CCC(O)(c2ccccc2Cl)CC1 [Compound 157, N-(3-chloro-4-(4-(2-chlorophenyl)-4-hydroxypiperidine-1-carbonyl)phenyl)quinoline-8-sulfonamide]
101 to 1000	< 100	< 100	< 100	O=C(c1ccc(NS(=O)(=O)c2cccc3cccnc23)c(Cl)c1)N1CCC(O)(c2ccccc2Cl)CC1 [Compound 222, N-(2-chloro-4-(4-(2-chlorophenyl)-4-hydroxypiperidine-1-carbonyl)phenyl)quinoline-8-sulfonamide]
101 to 1000	< 100	101 to 1000	101 to 1000	Cn1nccc1CC1(O)CCN(C(=O)c2ccc(NS(=O)(=O)c3cccc4scnc34)cc2)CC1 [Compound 433]
< 100	< 100	< 100	< 100	O=C(c1ccc(NS(=O)(=O)c2cccc3nccnc23)cc1)N1CCC(O)(Cc2ccccc2C(F)(F)F)CC1 [Compound 114, N-(4-(4-hydroxy-4-(2-(trifluoromethyl)benzyl)piperidine-1-carbonyl)phenyl)quinoxaline-5-sulfonamide]
101 to 1000	< 100	101 to 1000	< 100	Cn1cc(C2(O)CCN(C(=O)c3ccc(NS(=O)(=O)c4cccc5scnc45)cc3)CC2)cn1 [Compound 411, N-[4-[4-hydroxy-4-(1-methylpyrazol-4-yl)piperidine-1-carbonyl]phenyl]benzothiazole-4-sulfonamide]
